According to patent US9669003B2, “Use of flavone and flavanone derivatives in preparation of sedative and hypnotic drugs” (priority 2012, dated 2017):
Marks after values point to notes of the source that are not given here.

Legend:
Type in all cases: in vivo
Kunming mice [1] = experiment: Influence on hypnosis effect with pentobarbital sodium doses below the threshold (25 mg/kg i.p.); details: pentobarbital sodium 25 mg/kg i.p. 60 min later, sleep observed in 30 min, n = 10
In short: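 Kunming mice (10 per group, half female) given single oral doses of 25, 50 or 100 mg/kg in 0.5% CMC-Na; 60 min later pentobarbital sodium 25 mg/kg i.p. Sleep (righting reflex lost >1 min) scored within 30 min as percentage asleep, χ2 test.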

Kunming mice [2] = experiment: Influence on hypnosis effect with pentobarbital sodium doses at the threshold (50 mg/kg i.p.); details: pentobarbital sodium 50 mg/kg i.p. 60 min later, x ± s, n = 10
In short: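 Kunming mice (10/group, half each sex) received compound in 0.5% CMC-Na intragastrically at 25, 50 or 100 mg/kg; 60 min later given 0.3% sodium pentobarbital 50 mg/kg i.p. Sleep latency and duration recorded by loss of righting reflex over 1 min; ANOVA and χ2 for sleep incidence.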

Kunming mice [3] = experiment: Influence on autonomic activity of normal mice (ZIL-2 mice autonomic activity meter, counts within 10 min); details: intragastric, x ± s; for Times of activities in 1 h after drug administration/10 min: 1 h after administration; for Times of activities in 2 h after drug administration/10 min: 2 h after administration; for Times of activities in 24 h after drug administration/10 min: 24 h after administration
In short: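 Kunming mice (10 per group, half each sex) were dosed at 25, 50 or 100 mg/kg in 0.5% CMC-Na. Spontaneous activity counts over 10 min were recorded at 1 h, 2 h and 24 h post-dose. Groups were compared by ANOVA with Dunnett's test after Levene's check.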

[4] = test drug 25 mg/kg intragastric single dose
[5] = test drug 50 mg/kg intragastric single dose
[6] = test drug 100 mg/kg intragastric single dose
[7] = 25 mg/kg intragastric single dose
[8] = 50 mg/kg intragastric single dose
[9] = 100 mg/kg intragastric single dose

Structure (SMILES) | Number of sleeping animals (Kunming mice [1]; [4]) | rate of sleeping (%) (Kunming mice [1]; [4]) | Number of sleeping animals (Kunming mice [1]; [5]) | rate of sleeping (%) (Kunming mice [1]; [5]) | Number of sleeping animals (Kunming mice [1]; [6]) | rate of sleeping (%) (Kunming mice [1]; [6]) | duration of sleep (Kunming mice [2]; [7]) [min] | time to sleep (Kunming mice [2]; [7]) [min] | duration of sleep (Kunming mice [2]; [8]) [min] | time to sleep (Kunming mice [2]; [8]) [min] | duration of sleep (Kunming mice [2]; [9]) [min] | time to sleep (Kunming mice [2]; [9]) [min] | Times of activities in 1 h after drug administration/10 min (Kunming mice [3]; 25 mg/kg, n = 10) | Times of activities in 2 h after drug administration/10 min (Kunming mice [3]; 25 mg/kg, n = 10) | Times of activities in 24 h after drug administration/10 min (Kunming mice [3]; 25 mg/kg, n = 10) | Times of activities in 1 h after drug administration/10 min (Kunming mice [3]; 50 mg/kg, n = 10) | Times of activities in 2 h after drug administration/10 min (Kunming mice [3]; 50 mg/kg, n = 10) | Times of activities in 24 h after drug administration/10 min (Kunming mice [3]; 50 mg/kg, n = 10) | Times of activities in 1 h after drug administration/10 min (Kunming mice [3]; 100 mg/kg, n = 10) | Times of activities in 2 h after drug administration/10 min (Kunming mice [3]; 100 mg/kg, n = 10) | further results
COc1cc(OC)c2c(=O)cc(-c3ccc(OC)c(OC)c3)oc2c1 [Example 36] | 3 | 30% | 4 | 40* % | 6 | 60** % | 38.32 ± 20.03 | 4.21 ± 1.65 | 61.41 ± 26.54 | 3.77 ± 1.12 | 72.03 ± 21.92 | 3.09 ± 1.25 | – | – | – | – | – | – | – | – | Times of activities in 1 h after drug administration/10 min (Kunming mice [3]; 25 mg/kg, n = 10, 25 mg/kg): 321.4 ± 53.4 /10 min; Times of activities in 2 h after drug administration/10 min (Kunming mice [3]; 25 mg/kg, n = 10, 25 mg/kg): 310.8 ± 51.5 /10 min; Times of activities in 24 h after drug administration/10 min (Kunming mice [3]; 25 mg/kg, n = 10, 25 mg/kg): 300.2 ± 79.6 /10 min; Times of activities in 1 h after drug administration/10 min (Kunming mice [3]; 50 mg/kg, n = 10, 50 mg/kg): 289.9 ± 44.8 /10 min; Times of activities in 2 h after drug administration/10 min (Kunming mice [3]; 50 mg/kg, n = 10, 50 mg/kg): 258.2 ± 43.6 /10 min; Times of activities in 24 h after drug administration/10 min (Kunming mice [3]; 50 mg/kg, n = 10, 50 mg/kg): 311.5 ± 98.3 /10 min; Times of activities in 1 h after drug administration/10 min (Kunming mice [3]; 100 mg/kg, n = 10, 100 mg/kg): 288.3 ± 50.4 /10 min; Times of activities in 2 h after drug administration/10 min (Kunming mice [3]; 100 mg/kg, n = 10, 100 mg/kg): 235.8 ± 49.8 /10 min; Times of activities in 24 h after drug administration/10 min (Kunming mice [3]; 100 mg/kg, n = 10, 100 mg/kg): 322.6 ± 76.8 /10 min
COc1ccc(-c2cc(=O)c3c(OC)c(OC)c(OC)c(OC)c3o2)cc1OC [Example 14, 5,6,7,8,3′,4′-hexamethoxyl-flavone] | 4 | 40* % | 6 | 60** % | 7 | 70** % | 34.12 ± 28.26 | 4.78 ± 1.81 | 57.34 ± 19.33 | 4.25 ± 1.55 | 60.26 ± 32.36 | 3.93 ± 1.57 | 289.9 ± 42.3 /10 min | 281.1 ± 41.6 /10 min | 313.2 ± 74.4 /10 min | 178.6 ± 40.2 /10 min | 183.3 ± 51.3 /10 min | 324.7 ± 79.6 /10 min | 159.1 ± 48.1 /10 min | 133.9 ± 49.7 /10 min | Times of activities in 24 h after drug administration/10 min (Kunming mice [3]; 100 mg/kg, n = 10): 322.6 ± 61.2 /10 min
O=C1CC(c2ccc(O)c(O)c2)Oc2cc(O)cc(O)c21 (stereo not drawn) [Example 71] | 3 | 30% | 5 | 50* % | 6 | 60** % | 30.48 ± 22.67 | 5.55 ± 1.83 | 36.63 ± 20.19 | 3.73 ± 1.39 | 56.62 ± 24.57 | 3.82 ± 1.40 | 301.5 ± 58.2 /10 min | 267.8 ± 32.9 /10 min | 318.0 ± 66.9 /10 min | 278.9 ± 45.0 /10 min | 263.0 ± 46.3 /10 min | 322.9 ± 81.4 /10 min | 249.3 ± 41.3 /10 min | 245.8 ± 39.6 /10 min | Times of activities in 24 h after drug administration/10 min (Kunming mice [3]; 100 mg/kg, n = 10): 325.7 ± 60.9 /10 min
